One assay concerns RAD51 foci. Put plainly: RAD51 foci formation by immunofluorescence in MEFs. The assay is classed as cell-based, mouse. The following applies: MMC 200 ng/mL, 16 h exposure, RNF138 proficient MEFs; untreated control approximately 21 percent; p<0.01. On the procedure: The presence of RAD51 foci was examined in MEFs subjected to either 200 ng/mL Mitomycin C (MMC) treatment or with no treatment. In addition, both deficient RNF138 cells and proficient RNF138 cells were examined.
For analysis of RAD51 foci formation, 10,000 cells were seeded onto glass coverslips for transfection with Rnf138 siRNA. Twenty-four hr following siRNA transfection, cells were challenged with MMC (200 ng/mL) for 16 hr. Immunofluoresence detection of RAD51 foci was carried out as is generally known I the art (see, e.g., Smiraldo et al., 2005). Cells containing five or more distinct foci were scored positive. For each condition, a minimum of 250 cells from at least three independent experiments was analyzed (n≧750).
The presence of RAD51 foci monitored by immunofluorescence is illustrated in FIGS. 12A-D. RAD51 foci indicates DNA damaged sites undergoing HR repair. MMC treatment (200 ng/mL) increased the percentage of cells containing 5 or more distinct RAD51 foci from approximately 21 percent for untreated control cells (FIG. 12B) to 51 percent (FIG. 12D) following a 16 h exposure (p<0.01). […] In addition, RAD51 foci formation was less in untreated RNF138 deficient (FIG. 12A) versus RNF138 proficient (FIG. 12B) MEFs. Although, a notable increase in RAD51 foci is still detected upon MMC treatment (FIG. 13).

The next assay relates to HA-RAD51D. Briefly: HA-RAD51D protein levels after CHX with or without proteasome inhibitor MG132. Further details: HA-RAD51D protein levels elevated: dose or concentration left out as unconfirmed. Format: cell-based, mouse. As to the method: FIG. 18 illustrates analysis of MEFs that were treated with CHX ([…]) or CHX in combination with MG132 ([…]). Cell lysates were prepared at the 4 hour time point, and HA-RAD51D band intensity was calculated as described herein.
To determine whether decreased HA-RAD51D half-life can be attributed to proteasome degradation, HA-RAD51D protein levels were assessed following treatment with the proteasome inhibitor MG132. As anticipated, HA-RAD51D protein levels were elevated up to 42% in MG132 treated samples (FIG. 18, lanes 1-4) indicating RAD51D protein levels are in part regulated by the proteasome.

Where a SMILES comes first, the peptide text is derived from it. The star is where a group is joined. Cbz = O=C(OCc1ccccc1)*

Regarding `CO[C@@]12[C@H](COC(N)=O)C3=C(C(=O)C(C)=C(N)C3=O)N1C[C@@H]1N[C@@H]12` [MMC, Mitomycin C], the “percentage of cells containing 5 or more distinct RAD51 foci” value in the assay on RAD51 foci came to 51%.

As for `CC(C)C[C@@H](C=O)NC(=O)[C@H](CC(C)C)NC(=O)[C@H](CC(C)C)NC(=O)OCc1ccccc1` [MG132] (Cbz-Leu-Leu-Leu-aldehyde), in the assay with HA-RAD51D (CHX plus MG132, 4 hour time point, RNF138 knockdown MEFs), the “HA-RAD51D protein stability following knockdown of RNF138 expression” value is “failed to increase”. Further, the “HA-RAD51D protein levels elevated” value in the assay with HA-RAD51D (CHX, 4 hour time point, MEFs) is on record as “up to 42%”.
